The numbers were not newly measured in patent US20240148879A1, “GLP-1R, GIP-R AND/OR GCGR AGONISTS, FORMULATIONS, AND METHODS OF USE” (Spitfire Pharma LLC, priority 2021, published 2024), which cites them from elsewhere.

The conditions of data set [1]: 12 weeks.

Bridge positions count the residues as written; N and C are the ends. Ends that are not written are not given here.

As for “JNJ 64565111: a balanced dual agonist (HAQGTFTSDYSKYLDEKRAKEFVQWLMNTX; lactam 16-20; X not resolved here; also: Fc carrier conjugate)”, the “reduction in body weight” value in data set [1] is 8%.
As for `CCCCCCCCCCCCCCCC(=O)N[C@@H](CCC(=O)NCCCC[C@H](NC(=O)[C@H](CC(=O)O)NC(=O)[C@H](CO)NC(=O)[C@@H](NC(=O)[C@H](Cc1ccccc1)NC(=O)[C@@H](NC(=O)CNC(=O)[C@H](CCC(N)=O)NC(=O)[C@H](CO)NC(=O)[C@@H](N)Cc1c[nH]cn1)[C@@H](C)O)[C@@H](C)O)C(=O)N[C@@H](CO)C(=O)N[C@@H](CCC(=O)O)C(=O)N[C@@H](Cc1ccc(O)cc1)C(=O)N[C@@H](CC(C)C)C(=O)N[C@@H](CC(=O)O)C(=O)N[C@@H](CO)C(=O)N[C@@H](CCC(=O)O)C(=O)N[C@@H](CCCNC(=N)N)C(=O)N[C@@H](C)C(=O)N[C@@H](CCCNC(=N)N)C(=O)N[C@@H](CC(=O)O)C(=O)N[C@@H](Cc1ccccc1)C(=O)N[C@H](C(=O)N[C@@H](C)C(=O)N[C@@H](Cc1c[nH]c2ccccc12)C(=O)N[C@@H](CC(C)C)C(=O)N[C@@H](CCC(=O)O)C(=O)N[C@@H](C)C(=O)NCC(=O)NCC(=O)O)C(C)C)C(=O)O` [cotadutide], the “reduction in liver fat content” value (6 weeks) is 39%. Besides, the “NASH-related alanine aminotransferase (ALT) reduction” value (compared with liraglutide alone) is listed as “greater improvement”. The “degree of weight loss” value (over 26 weeks of administration) is recorded as 5.4%.
